Measurements as given in US4975354A, “Photographic element comprising an ethyleneoxy-substituted amino compound and process adapted to provide high constrast development” (Eastman Kodak Company, priority 1989, dated 1990).

Assay: Example 33: Film A (no incorporated booster) in Developer A versus Film B (Compound XIII) in Developer B, 80 seconds at 30° C.
Conditions: Table III data
Experimental: This example was carried out using photographic elements similar to those of Examples 1 to 32 except that the nucleating agent employed was a mixture of the hydrazine compound: [drawing 33] at a coverage of 0.0121 g/m^2 and the hydrazine compound: [drawing 34] at a coverage of 0.00237 g/m^2.
A film designated Film A was prepared with no incorporated booster compound, while a film designated Film B contained 0.0861 g/m^2 of Compound XIII. A developing solution, designated Developer A, was formulated from the following ingredients: […]
A second developing solution, designated Developer B, differed from Developer A in that the 3-diethylamino-1,2-propanediol was omitted.
Film A was developed in Developer A at a pH of 11.6 for 80 seconds at 30° C. Film B was developed in Developer B for 80 seconds at 30° C. at pH levels of 11.6, 11.5 and 11.4. The pH's of the developing solutions were adjusted to the designated levels using concentrated potassium hydroxide and concentrated hydrochloric acid.

CCN(CC)CC(O)CO (stereo not shown) [3-diethylamino-1,2-propanediol]
booster activity (in words): highly effective booster compound
